# Experimental data as given in publication PMC12129089, “Peptide stereocomplex cross-links for polymer hydrogels” (Chemical Science, 2025).
# Square brackets hold non-standard residues; d marks the D form. Ends that are not written are not given here. Peptide text beside a SMILES is read from it.
# What was measured:
# [1] = target: T1, Proteinase K (Parengyodontium album, UniProt P06873); conditions: unconjugated KYFIL peptides; cited from earlier work
# T1 construct: purchased Sigma-Aldrich
# Experimental: Given the potential of peptide stereocomplexes to prolong hydrogel lifetime due to enhanced proteolytic stability, we were interested to learn whether the KYFIL stereocomplex cross-links boost the proteolytic stability of polymeric hydrogels. In our prior study with unconjugated KYFIL stereocomplexes, we incubated l-, 1 : 1 L : D-, and D-KYFIL in Proteinase K, an enzyme that is predicted to cleave L-KYFIL between the Y–F, F–I, and I–L residues.[57] We found more than 90% intact peptide in the 1 : 1 L : D-peptide mixtures after incubation with Proteinase K for 72 h, while only ∼35% L-KYFIL rema ...
# [2] = Solubility / visual appearance in water, PBS or urea-PBS; type: physicochemical
# Description: To attach the peptides to PEG, we selected a thiol-maleimide reaction[43,44] due to its efficiency under mild conditions (Fig. 1a). Therefore, we prepared cysteine-terminated L- and […], or […] and […]8 ^†), for conjugation to maleimide-functionalized 4-arm PEG. […] We note that […] peptides are only partially soluble and form a white dispersion in the 7 M urea 1× PBS solution (Fig. S10 ^†). […] In 1× PBS, while 1.5% (w/v) unconjugated KYFIL forms β-sheets, the conjugates are soluble and we see no evidence of β-sheet formation by infrared (IR) spectroscopy even at 15% ([…] ^†), corresponding to a peptide equivalent concentration of ∼2% (w/v), which exceeds the peptide concentrations in the 1.5% (w/v) formulations of peptide alone. As noted in our previous report on unconjugated KYFIL,[20] we used IR here for secondary structure determination rather than CD because the high peptide concentrations and the presence of salt that promote β-sheet formation also complicate CD spectra acquisition by saturating the detector. […] Moreover, the absorbances are more prominent at higher concentrations (Fig. 2b), signifying the relationship between secondary structure and hydrogel formation.
# T1 sequence (P06873 106-384): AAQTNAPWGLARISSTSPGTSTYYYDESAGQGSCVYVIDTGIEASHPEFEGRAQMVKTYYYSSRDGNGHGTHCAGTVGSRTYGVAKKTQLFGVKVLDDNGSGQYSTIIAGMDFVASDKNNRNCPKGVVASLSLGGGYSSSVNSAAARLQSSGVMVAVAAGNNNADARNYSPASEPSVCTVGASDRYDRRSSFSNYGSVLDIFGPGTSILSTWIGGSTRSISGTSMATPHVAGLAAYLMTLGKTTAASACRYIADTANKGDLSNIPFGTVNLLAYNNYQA
compound,measurement,setting,value
L-KYFIL [unconjugated L-peptide KYFIL of the authors' prior study],intact peptide after incubation with Proteinase K for 72 h,[1],~35%
CC[C@@H](C)[C@@H](NC(=O)[C@@H](Cc1ccccc1)NC(=O)[C@@H](Cc1ccc(O)cc1)NC(=O)[C@H](N)CCCCN)C(=O)N[C@H](CC(C)C)C(=O)N[C@H](CS)C(N)=O [D-KYFILC] (H-[dK][dY][dF][dI][dL][dC]-NH2),solubility in water (in words),[2],soluble
KYFILC-NH2 [L-KYFILC],solubility in water (in words),[2],soluble
